These results are taken from patent US20080004348A1, “Naphthalene compounds” (LES LABORATOIRES SERVIER, priority 2006, published 2008).

The target in test [1] is MT1 receptor (Homo sapiens, UniProt P48039). Kind of test: Melatonin MT1 receptor binding study, 2-[125I]-iodomelatonin. The following applies: 2-[125I]-iodomelatonin radioligand. As to the method: (§1) The MT1 or MT2 receptor binding experiments are carried out using 2-[^125I]-iodomelatonin as reference radioligand. The radioactivity retained is determined using a liquid scintillation counter.
(§2) Competitive binding experiments are then carried out in triplicate using the various test compounds. A range of different concentrations is tested for each compound. The results enable the binding affinities of the compounds tested (Ki) to be determined.

In test [2] the target is T1, MT2 receptor (Homo sapiens, UniProt P49286).
T1 sequence (P49286 1-362): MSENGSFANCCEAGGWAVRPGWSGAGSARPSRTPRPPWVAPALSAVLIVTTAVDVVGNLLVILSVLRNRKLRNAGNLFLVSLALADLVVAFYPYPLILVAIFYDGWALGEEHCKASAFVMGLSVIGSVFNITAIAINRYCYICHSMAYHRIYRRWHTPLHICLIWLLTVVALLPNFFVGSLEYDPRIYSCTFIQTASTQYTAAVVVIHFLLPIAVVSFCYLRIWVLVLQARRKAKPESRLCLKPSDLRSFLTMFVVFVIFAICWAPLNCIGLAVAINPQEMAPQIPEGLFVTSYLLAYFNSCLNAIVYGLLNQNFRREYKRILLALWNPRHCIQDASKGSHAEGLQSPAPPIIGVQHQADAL
The test is described as follows: Melatonin MT2 receptor binding study, 2-[125I]-iodomelatonin. The following applies: 2-[125I]-iodomelatonin radioligand. As to the method: as §1, §2

Test [3] has as its target T2, human 5-HT2C receptor (Homo sapiens, UniProt P28335).
T2 construct: expressed in transfected cells
T2 sequence (P28335 33-458): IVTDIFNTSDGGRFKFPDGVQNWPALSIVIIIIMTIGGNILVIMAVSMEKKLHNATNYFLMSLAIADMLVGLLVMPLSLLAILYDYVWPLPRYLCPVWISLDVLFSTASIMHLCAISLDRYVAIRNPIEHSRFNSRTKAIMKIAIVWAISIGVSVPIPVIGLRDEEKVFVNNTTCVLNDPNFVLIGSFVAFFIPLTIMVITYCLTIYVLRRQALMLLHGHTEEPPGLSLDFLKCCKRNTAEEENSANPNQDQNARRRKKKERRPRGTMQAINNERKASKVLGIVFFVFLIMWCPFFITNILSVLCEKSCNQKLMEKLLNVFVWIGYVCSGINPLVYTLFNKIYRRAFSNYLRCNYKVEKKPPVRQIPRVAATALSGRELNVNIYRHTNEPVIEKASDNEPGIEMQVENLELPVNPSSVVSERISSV
Kind of test: Serotoninergic 5-HT2C receptor binding study, [3H]-mesulergine. The following applies: membranes from CHO cells expressing human 5-HT2C. As to the method: The affinity of the compounds for the human 5-HT2C receptor is evaluated on membrane preparations from CHO cells stably expressing that receptor.
Incubation is carried out in 50mM TRIS buffer, pH 7.4 containing 10 mM MgCl2 and 0.1% BSA, in the presence of [^3H]-mesulergine (InM) and 25 fmol/ml of receptor. Non-specific binding is determined in the presence of 10 μM mianserin.
The reaction is stopped by the addition of 50 mM TRIS buffer, pH 7.4 followed by a filtration step and 3 successive rinses: the radioactivity bound to the membranes remaining on the filters (GF/B pretreated with 0.1% PEI) is determined by liquid scintillation counting.

MT1 receptor, sequence (P48039 whole entry): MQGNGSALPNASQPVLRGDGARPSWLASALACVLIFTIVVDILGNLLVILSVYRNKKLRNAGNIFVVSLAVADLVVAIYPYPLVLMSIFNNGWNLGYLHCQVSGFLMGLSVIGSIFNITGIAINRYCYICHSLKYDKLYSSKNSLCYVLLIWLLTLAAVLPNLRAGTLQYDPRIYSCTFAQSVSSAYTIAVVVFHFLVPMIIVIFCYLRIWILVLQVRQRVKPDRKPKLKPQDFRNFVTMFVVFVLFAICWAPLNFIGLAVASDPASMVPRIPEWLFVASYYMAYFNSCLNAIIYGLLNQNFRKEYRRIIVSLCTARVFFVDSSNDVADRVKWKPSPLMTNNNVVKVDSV

On to `COCC(CNC(C)=O)c1cccc2ccc(OC)cc12` (stereo not drawn) [Example 6, N-[3-Methoxy-2-(7-methoxy-1-naphthyl)propyl]acetamide], for which the values for the Ki in test [1], in test [2] and in test [3] were 4.9 nM, 8.9 nM and 26000 nM, respectively.

Broadly, the Ki is the dissociation constant of the complex between target and ligand, obtained from inhibition or displacement.
